Laboratory results from PMC8455565 (Scientific Reports, 2021).

Assays:
[1] = Phase I pharmacokinetics in healthy volunteers; type: in vivo; settings: male, human, plasma, oral; after multiple doses, all dose levels (BID)
Method: PK/PD data from 24 subjects who had received the drug BID among the 90 total subjects who participated in the MAD study were analyzed. Blood was collected on day 1 before drug administration and 1 h, 2 h, 4 h, and 12 h after drug administration. Blood samples were taken 3 days and 2 h after drug administration. Additional blood samples were taken on day 6 (5, 20, and 60 mg/kg), day 15 (40 mg/kg), day 17, and day 21 for PK/PD analysis.
(§1) After drug administration, whole blood was collected from CIA model rats and human subjects at the indicated times. Plasma was obtained by centrifugation at 12,000 rpm for 2 min and stored at − 20 °C until analysis.

CTLL-2 = assay: IL-2 induced T cell proliferation in CTLL-2; type: cell-based; settings: Mus musculus, cellular level
[2] = Plasma pharmacokinetics in CIA model rats; type: in vivo; settings: Lewis, rat; for AUC(0-t) / Tmax / Cmax: day 9, mean ± SD; for Cmax: po
Method: as §1

BTK [3] = target: T1, BTK (Homo sapiens, UniProt Q06187); assay: BTK occupancy in B cell line (Ramos cells, biotinylated probe, AlphaScreen); type: cell-based
Method: A total of 5 × 10^5 Ramos cells/well were plated in 96-well PDL-coated plates in DMEM with high glucose (GIBCO) supplemented with 10% FBS. Serial dilutions of LY3439943 in DMSO (final DMSO concentration, 0.4%) were incubated with the cells for 1 h at 37 °C. An equal volume of a covalent biotinylated BTK probe was added (final concentration, 167 nM), and the cells were incubated for another 1 h at 37 °C. The cells were lysed, and the amount of BTK was determined using the AlphaScreen IgG Detection Kit (Perkin Elmer 6760617R) and an anti-BTK antibody (Thermo Scientific Cat# MA5-14929) following the manufacturer’s instructions. The signal was measured at 615 nm with an Envision plate reader (Perkin Elmer).

BTK [4] = target: T1, BTK; assay: BTK kinase activity, Z'-LYTE FRET biochemical assay; parameters: purchased Thermo Fisher Scientific PV3363; settings: mean ± S.D; read-out: IC50, hBTK biochemical assay
Method: The kinase activity of BTK was measured using the Z′-LYTE assay based on fluorescence resonance energy transfer (FRET). […] Briefly, BTK, peptide, ATP and inhibitor mixtures were incubated for 1 h at room temperature. Then, Development Reagent A was added to each well, and incubation proceeded for another 1 h. […] The data were analyzed by GraphPad Prism 6 (GraphPad Software, CA, USA) to determine the IC50 values.

BTK [5] = target: T2, BTK (Rattus norvegicus, UniProt Q5S255); assay: BTK occupancy and BTK phosphorylation in CIA model rats (PD); type: in vivo; settings: for correlation coefficient, arthritis score vs BTK occupancy: negative correlation; for correlation coefficient, clinical arthritis score vs BTK phosphorylation: positive correlation
T2 construct: endogenous in cells; host or cells: rat PBMCs (normal rats in vitro; CIA model rats ex vivo)
Method: The BTK occupancy assay and analysis of BTK phosphorylation inhibition were performed as described previously. Briefly, isolated PBMCs were lysed with RIPA buffer (R0278, Sigma-Aldrich) containing 1 × protease/phosphatase inhibitor (1861281, Thermo Fisher Scientific) and EDTA (1861274, Thermo Fisher Scientific). The supernatants were collected by 10 min at 14,000 × g in microcentrifuge at 4 °C and biotinylated probe was added to bind free BTK for 1 h. Rabbit anti-BTK Ab (1:5000 in 1% BSA) bound the captured BTK/probe complex, and was detected with […] antibody conjugated with HRP then ultra-TMB solution was added to each well for the free BTK analysis. Analysis of free and total BTK levels for the phase I study was conducted by Cambridge Biomedical Inc. (MA, USA). BTK occupancy was calculated by taking the free BTK and total BTK results from a given donor and used the following formula: %BTKoccupancy=100%-FreeBTK/totalBTK×100.
For analysis of BTK phosphorylation inhibition, the relative percentage of phosphorylated BTK was calculated by the following equation: phospho-BTK level / total BTK level × 100. The results are presented as the mean percentage ± S.D.
Figure 5 Pharmacologic inhibition of BTK and its correlation with efficacy. (A,B) Whole blood was collected from the CIA-induced rats at the 0, 4, 12, 24 h after final drug administration, and then PBMCs and plasma were isolated. BTK phosphorylation was detected by immunoblotting and normalized to the total BTK level, and BTK occupancy was measured by ELISA using a biotinylated probe as described in the Materials and Methods. […] Full-length blots are presented in Supplementary Fig. 1. (C) Correlations between drug efficacy (clinical arthritis score) and the PD markers BTK phosphorylation percentage (left)/drug efficacy and BTK occupancy percentage (right). Linear regression was performed by using GraphPad Prism 6. The data are presented as the mean ± S.D.

CIA model rats = assay: Collagen-induced arthritis (CIA) model, clinical score and body weight; type: in vivo, rat; settings: for Arthritis clinical score: day 8, mean ± SEM
Method: All animals were obtained from Charles River Japan (150 ± 10 g, 6 weeks old). The experimental protocols were approved by the animal care and use committee of the Hanmi Research Center and performed in accordance with approved guidelines. Briefly, 7-week-old male Lewis rats were immunized with a collagen emulsion of equal volumes of IFA ([…], Sigma-Aldrich) and bovine type II collagen (total volume, 0.6 mL) via intradermal injection into the base of the tail. Seven days later, the rats were given a booster immunization of 0.3 ml of collagen emulsion in the same manner. The incidence of arthritis was 79% on day 6 after booster immunization, and the rats were randomized into 4 groups when the average clinical score of each animal was 2.8 (on a scale of 16) (n = 20 in each drug-administered group, n = 8 in the CIA control group). […] The arthritis score was determined by grading each paw from 0 to 4 based on erythema, swelling, and flexion of the joint. Body weight was also measured three times per week.

T2 sequence (Q5S255 1-660): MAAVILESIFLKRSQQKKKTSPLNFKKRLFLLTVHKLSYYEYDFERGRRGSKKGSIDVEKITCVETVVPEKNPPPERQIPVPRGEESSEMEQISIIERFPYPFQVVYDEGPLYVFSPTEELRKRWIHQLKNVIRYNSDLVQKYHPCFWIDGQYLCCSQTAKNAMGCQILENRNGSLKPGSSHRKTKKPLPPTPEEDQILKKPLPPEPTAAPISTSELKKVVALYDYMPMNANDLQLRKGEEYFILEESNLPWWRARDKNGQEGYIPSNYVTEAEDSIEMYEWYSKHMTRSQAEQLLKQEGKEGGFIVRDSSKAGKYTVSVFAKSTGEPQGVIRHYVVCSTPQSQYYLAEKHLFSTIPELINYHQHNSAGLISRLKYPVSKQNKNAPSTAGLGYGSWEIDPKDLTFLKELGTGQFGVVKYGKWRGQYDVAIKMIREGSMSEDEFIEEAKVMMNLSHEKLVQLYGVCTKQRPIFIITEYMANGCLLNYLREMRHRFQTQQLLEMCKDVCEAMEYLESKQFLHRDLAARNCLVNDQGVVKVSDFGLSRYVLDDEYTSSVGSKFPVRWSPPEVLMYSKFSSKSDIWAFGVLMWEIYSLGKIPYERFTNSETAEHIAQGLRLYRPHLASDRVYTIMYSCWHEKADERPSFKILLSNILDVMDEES
T1 sequence (Q06187 whole entry): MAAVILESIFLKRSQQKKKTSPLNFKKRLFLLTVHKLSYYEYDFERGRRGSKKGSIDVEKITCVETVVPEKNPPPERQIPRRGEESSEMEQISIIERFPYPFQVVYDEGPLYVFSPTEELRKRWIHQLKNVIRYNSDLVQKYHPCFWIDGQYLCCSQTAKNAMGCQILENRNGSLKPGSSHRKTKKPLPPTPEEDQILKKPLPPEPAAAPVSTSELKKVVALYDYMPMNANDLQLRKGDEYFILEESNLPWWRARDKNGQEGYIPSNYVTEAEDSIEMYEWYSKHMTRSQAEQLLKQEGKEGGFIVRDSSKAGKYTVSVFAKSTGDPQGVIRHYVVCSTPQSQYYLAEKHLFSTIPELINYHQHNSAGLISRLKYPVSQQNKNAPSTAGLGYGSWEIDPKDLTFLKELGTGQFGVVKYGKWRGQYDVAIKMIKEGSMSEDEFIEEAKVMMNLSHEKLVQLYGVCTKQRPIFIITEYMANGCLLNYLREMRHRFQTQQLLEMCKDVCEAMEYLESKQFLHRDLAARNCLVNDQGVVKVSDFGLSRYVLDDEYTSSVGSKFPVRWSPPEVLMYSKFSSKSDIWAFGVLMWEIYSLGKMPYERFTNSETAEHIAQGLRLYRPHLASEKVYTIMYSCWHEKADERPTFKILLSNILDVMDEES

Tmax [1]: 60 to 120 min
AUC(0-t) ([2]; 0.3 mg/kg oral): 2 ± 1.8 ng·h/mL
Tmax ([2]; 0.3 mg/kg oral): 36 ± 18 min
AUC(0-t) ([2]; 1 mg/kg oral): 10 ± 3.6 ng·h/mL
Tmax ([2]; 1 mg/kg oral): 30 min
AUC(0-t) ([2]; 3 mg/kg oral): 49.9 ± 10.4 ng·h/mL
Tmax ([2]; 3 mg/kg oral): 84 ± 108 min
concentration at 4 h ([2]; oral, all treatment groups (0.3, 1, 3 mg/kg), day 9, below LLOQ, read-out: plasma concentration at 4 h after drug administration): < 0.5 ng/mL
Cmax ([2]; 0.3 mg/kg, 0.3 mg/kg oral): 1.5 ± 0.5 ng/mL
Cmax ([2]; 1 mg/kg, 1 mg/kg oral): 7.3 ± 3.3 ng/mL
Cmax ([2]; 3 mg/kg, 3 mg/kg oral): 22.6 ± 2.3 ng/mL
IC50 (BTK [3]): 5 nM
IC50 (BTK [4]): 4 nM
BTK occupancy (BTK [5]; 3 mg/kg, 4 h after the last administration): full BTK occupancy
BTK occupancy (BTK [5]; 3 mg/kg, at 12 and 24 h): completely occupied
BTK occupancy (BTK [5]; 0.3 and 1 mg/kg, 4 h after the last administration): partial BTK occupancy
BTK phosphorylation (BTK [5]; 0.3 and 1 mg/kg, at 12 and 24 h): partially inhibited
correlation coefficient, arthritis score vs BTK occupancy (BTK [5]; 4 h): 0.8003
correlation coefficient, clinical arthritis score vs BTK phosphorylation (BTK [5]; 4 h): 0.6750
correlation coefficient, arthritis score vs BTK occupancy (BTK [5]; 12 h): 0.8757
correlation coefficient, clinical arthritis score vs BTK phosphorylation (BTK [5]; 12 h): 0.7795
correlation coefficient, arthritis score vs BTK occupancy (BTK [5]; 24 h): 0.8528
correlation coefficient, clinical arthritis score vs BTK phosphorylation (BTK [5]; 24 h): 0.8603
SMILES: C=CC(=O)Nc1cccc(Oc2nc(Nc3ccc(N4CCN(C)CC4)cc3)nc3ccoc23)c1 [Poseltinib]
IC50 (CTLL-2): > 500 nM
Arthritis clinical score (CIA model rats; 0.3 mg/kg oral once daily): 8.5 ± 0.5
Arthritis clinical score (CIA model rats; 1 mg/kg oral once daily): 6.7 ± 0.6
disease-induced body weight loss (CIA model rats; 3 mg/kg): prevented weight loss
Arthritis clinical score (CIA model rats; 3 mg/kg oral once daily): 2.7 ± 0.4
